Experimental data reported in US20170044230A1 (USTAV ORGANICKE CHEMIE A BIOCHEMIE AV CR, V.V.I., priority 2014, published 2017).
“Also recorded” adds a separate entry of the source.

How the values were obtained:
[1] = Pharmacokinetics in vivo after SC administration to mice; settings: SC 5 mg/kg
Procedure: Mice were housed at a temperature 22±2° C. under a daily cycle of 12/12 h light/dark (light from 6:00) with free access to water and a standard chow diet St-1 (Mlýn Kocanda, Praha, Czech Republic).
4, 6, 14 and 18 at a dose of 5 mg/kg of body weight (0.2 ml/mouse, n=4). Blood was collected from tails before injection and 0.5, 1, 2, 4, 8, 16 and 24 h after injection. Plasma was separated and stored at −20° C.

[2] = tested on: 4-5-week old male C57BL/6 mice; test: Growth hormone (GH) release after SC administration to young mice; type: in vivo; settings: 10 min after SC 5 mg/kg
Procedure: 4 and 14 at a dose of 5 mg/kg of body weight (0.2 ml/mouse). 10 min after the injection, blood was collected, plasma was prepared and stored at −20° C. until use. GH levels in the plasma samples were determined by Rat/Mouse Growth Hormone ELISA kit (Merck-Millipore, St. Charles, Mo., USA). Ghrelin analogs no.

[3] = tested on: mouse model of lipopolysaccharide-induced cachexia; test: Mouse model of lipopolysaccharide-induced cachexia (LPS model); type: in vivo, mice
Procedure: Male C57BL/6 mice (Charles River, Germany) were housed at a temperature of 22±2° C. under a daily cycle of 12/12 h light/dark (light from 6:00) with free access to water and a standard chow diet St-1 (Mlýn Kocanda, Praha, Czech Republic). One week before the experiment, the mice were placed into separated cages and habituated to an automatic system for food intake monitoring (Developmental workshop IOCB, Prague, Czech Republic). Animals were randomized into two groups, LPS group and control group. At 17:00, the LPS group was injected intraperitoneally (IP) with 100 μg/kg of body weight LPS (Escherichia coli 055:B5 serotype, Sigma) in a volume of 0.2 ml saline. The control group received an IP injection with an equal volume of saline. Food intake was monitored automatically in 10-min intervals. […] 14 (n=4-5 mice per group). Food intake was monitored for another 10 hours.
At the end of the experiment, mice were sacrificed by decapitation, blood was collected, plasma was prepared and stored at −20° C. Hypothalamus was dissected, frozen on dry ice and stored at −80° C., musculus gastrocnemius was dissected, flash-frozen in liquid nitrogen and stored at -80° C. C-reactive protein levels and pro-inflammatory/anti-inflammatory cytokine levels in blood plasma were determined using C-Reactive Protein Mouse ELISA (Biovendor, Bmo, Czech Republic) and Milliplex MAP Rat Cytokine/Chemokine Magnetic Bead Panel (Merck-Millipore, St. Charles, Mo., USA), respectively. Samples of hypothalamus and muscle were homogenized, total RNA was extracted and RNA concentration was determined as previously described (Holubova et al., 2014). Determination of the mRNA expression of genes of interest (MuRFI and MAFbx in muscle, NPY and AgRP in hypothalamus) was performed using an ABI PRISM 7500 instrument (Applied Biosystems, Foster City, Calif., USA). The expression of GAPDH or GUSH was used to compensate for variations in input RNA amounts and the efficiency of reverse transcription, and the modified formula 2-ΔCt was used to calculate the relative gene expression.

fed C57BL/6 male mice = test: Effect of SC administered ghrelin analogs on food intake; type: in vivo
Outline: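 Food-withdrawn male C57BL/6 mice, dosed SC, received preweighed chow 15 min after injection; intake recorded every 30 min for 8-10 hours, ≥5 mice/group. ED50 = dose giving half-maximal effect at 250 min; maximal effect taken at 480 min after 5 mg/kg.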

human GHS-R1a receptor = target: T1, human GHS-R1a receptor (Homo sapiens, UniProt Q92847); test: Competitive binding studies (displacement of 125I-ghrelin); settings: relative to ghrelin = 100
T1 construct: purchased Multispan, Hayward, Calif., USA; host or cells: HEK293T cells, isolated plasma membranes
Procedure: Isolated plasma membranes from the HEK293T cells with transfected human GHS-R1a receptor (Multispan, Hayward, Calif., USA) were used. […] Experiments were carried out in duplicates at least three times. Competitive binding curves were plotted using GraphPad Prism Software (San Diego, Calif., USA) while comparing the best fit for single binding sites models.

[4] = single SC 5 mg/kg after LPS, 5 mg/kg
[5] = single SC administration, LPS model

T1 sequence (Q92847 whole entry): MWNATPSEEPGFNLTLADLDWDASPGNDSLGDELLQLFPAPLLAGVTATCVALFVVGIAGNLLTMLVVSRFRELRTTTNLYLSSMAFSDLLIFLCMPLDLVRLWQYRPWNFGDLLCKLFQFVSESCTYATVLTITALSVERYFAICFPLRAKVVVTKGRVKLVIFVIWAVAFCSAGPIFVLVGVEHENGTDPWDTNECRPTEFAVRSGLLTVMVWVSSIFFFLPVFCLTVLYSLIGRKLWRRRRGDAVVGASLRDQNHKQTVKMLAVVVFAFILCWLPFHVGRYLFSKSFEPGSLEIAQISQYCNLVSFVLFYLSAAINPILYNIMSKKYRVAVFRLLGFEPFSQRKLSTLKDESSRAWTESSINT

CCCCCCCCCCCCCC(=O)NC[C@H](NC(=O)[C@H](CO)NC(=O)CNC)C(=O)N[C@@H](Cc1ccc(Cl)c(Cl)c1)C(=O)N[C@@H](CC(C)C)C(=O)N[C@@H](CO)C(=O)N1CCC[C@H]1C(=O)N[C@@H](CCC(=O)O)C(=O)N[C@@H](Cc1c[nH]cn1)C(=O)N[C@@H](CCC(N)=O)C(=O)N[C@@H](CCCCN)C(=O)N[C@@H](C)C(=O)N[C@@H](CCC(N)=O)C(=O)N[C@@H](CCC(N)=O)C(=O)N[C@@H](CCCNC(=N)N)C(=O)N[C@@H](CCCCN)C(=O)N[C@@H](CCC(=O)O)C(=O)N[C@@H](CO)C(=O)N[C@@H](CCCCN)C(=O)N[C@@H](CCCCN)C(=O)N1CCC[C@H]1C(=O)N1CCC[C@H]1C(=O)N[C@@H](C)C(=O)N[C@@H](CCCCN)C(=O)N[C@@H](CC(C)C)C(=O)N[C@@H](CCC(N)=O)C(=O)N1CCC[C@H]1C(=O)N[C@@H](CCCNC(=N)N)C(=O)O [Analog 14]
stability in vivo compared with ghrelin or Dpr^3ghrelin [1]: significantly more stable than ghrelin or Dpr^3ghrelin | half-life ([1]; male, C57BL/6, mouse, plasma): 5 h | GH levels in plasma [2]: did not alter the GH levels | levels of C-reactive protein ([3]; single SC 5 mg/kg after LPS): tended to normalize levels of C-reactive protein | levels of pro-inflammatory cytokine IL-2 ([3]; single SC 5 mg/kg after LPS): normalized levels of pro-inflammatory cytokine IL-2 | food intake ([3]; single SC 5 mg/kg after LPS, monitored 10 hours, 5 mg/kg): significant increase in food intake; also recorded: increased food intake | expression of mRNA for orexigenic neuropeptides NPY and AgRP in hypothalamus [3, 4]: significantly increased expression of mRNA; also recorded: increased expression of orexigenic neuropeptides in the hypothalamus | mRNA expression for markers of muscle degradation MuRF-1 and MAFbx [3, 4]: tended to decrease mRNA expression; also recorded: tended to decrease expression of markers of muscle degradation | cachectic state [3, 5]: improved the cachectic state | plasmatic levels of pro-inflammatory cytokines [3, 5]: reduced plasmatic levels of pro-inflammatory cytokines | maximal effect at 5 mg/kg on food intake (fed C57BL/6 male mice; SC 5 mg/kg, evaluated 480 min after administration): 235.5 % of Dpr^3ghr | ED50 (250 min after injection), effect on food intake (fed C57BL/6 male mice; SC, fed mice, 250 min after injection): 0.65 mg/kg | % of ghrelin binding (human GHS-R1a receptor): 7%
